Experimental data as given in patent US20180042231A1, “Systems and Methods for the Continuous On-Site Production of Peroxycarboxcylic Acid Solutions” (Eltron Water Systems, LLC, priority 2016, published 2018).

Key:
[1] = Degradation (self-decay) of PAA solution over time; assay type: physicochemical; conditions: for degradation rate of non-equilibrium PAA: 2% concentration
Description: Sometimes it is desirable to remove the very strong odor of the final equilibrium PAA product, such as when it is used indoors. Anti-microbial efficacy is roughly the same whether the PAA is in an acidic or alkaline state. The two most significant differences are: 1) alkaline PAA has no odor and 2) alkaline PAA self-degrades very rapidly when the pH is above 8, usually at 5-10% per hour. In situations where the PAA is to be used within minutes or hours of when it is made alkaline, the addition of an alkali earth metal in solution with water can be used alone or with more water to both dilute the PAA and raise its pH to any desired level, eliminating its odor. At this point other materials may be added to the alkaline PAA such as detergents, fragrance additives and even foaming agents.
The system of the present invention is designed such that the PAA is produced in a unique manner which differs substantially from prior art processes, the end product being inherently not at equilibrium. At 2% concentration, it degrades at about 6% per day if the pH is below 7 (acidic) and at 5-10% per hour when the pH is above 7. Use of a stabilizer will not halt that decay. Accordingly, the system herein disclosed is designed to generate PAA to be used within minutes or hours of when it is made, thereby eliminating the need for a stabilizer used by every other PAA manufacturer in the world.

[2] = Dissolution of triacetin in water; assay type: physicochemical; conditions: room temperature
Description: A second method involves pre-dissolving traicetin in water outside the generator using time and mixing to eliminate the strands and globules. This approach requires a significant amount of extra water to be supplied to the generator, since at room temperature, the maximum amount of triacetin that can be dissolved is only approximately 4%.

In the case of `CC(=O)OO` [PAA, peracetic acid], the “degradation rate of non-equilibrium PAA” value ([1]; pH above 7) is reported as 5-10 % per hour, the “degradation rate of non-equilibrium PAA” value ([1]; pH below 7 (acidic)) is reported as “about 6 % per day” and the “self-degradation rate of alkaline PAA” value ([1]; equilibrium PAA made alkaline, pH above 8) is reported as 5-10 % per hour.
In the case of `CC(=O)OCC(COC(C)=O)OC(C)=O` [triacetin, 1,2,3-triacetoxypropane], the “maximum amount of triacetin that can be dissolved in water” value [2] is reported as “approximately 4%”.
